For 93 compounds, Ratio results are on record in ChEMBL document CHEMBL2448809, “UCSF DeRisi Lab MMV Box Apicoplast Screening”.

The test system of this assay is Plasmodium falciparum. Description: MMV: Compounds (1uM) were screened in a 72hr growth assay monitored by flow cytometry both in the presence and absence of supplemental isopentenyl pyrophosphate (IPP) 200uM. Compounds which fail to show anti-malarial activity when chemically rescued by IPP are therefore specific to the apicoplast. The values are expressed as the ratio of the corresponding activity with and without IPP, respectively. In kind it is functional, W2.
With `Cc1c(C)n(CC(O)CNC2CCCCC2C)c2ccccc12` (stereo not drawn), the Ratio turned out to be 0.9649. `Cc1ccc(Cn2c(N3CCC(C(=O)NCc4cccs4)CC3)nc3ccccc32)cc1`: the Ratio was found to be 1.032. Regarding `CCOC(=O)C1=C(c2ccccc2)N=c2sc(=Cc3cc(C)n(-c4ccc(F)cc4)c3C)c(=O)n2C1c1cccc(OC)c1OC` (stereo not drawn), the Ratio came to 0.7267. Then `CC(C)(C)c1ccc(C(=O)Nc2nc3ccccc3s2)cc1`, with 0.8302; and `CCCc1c(C)nc2ccc(Br)cc2c1O`, with 1. Then `Cc1ccc2cc3c(N)c4c(C)ccc(C)c4nc3nc2c1`, with 1.095; and `CCN(CC)CCNc1ccnc2cc(Cl)ccc12`, with 0.8734. Then `O=C(Nc1cccc(C2=NCCN2)c1)Nc1cccc(C2=NCCN2)c1` [IMIDOCARB], with 1. For `COCCn1c(C)nc2ccccc2c1=O`, the Ratio is 0.9589. Then `CCN(CC)CCNc1ncnc2c1[nH]c1ccc(Br)cc12`, with 0.9508. Then `O=C1c2ccc3c4c(ccc(c24)C(=O)N1CCCCO)C(=O)N(CCCCO)C3=O`, with 1.047; and `O=C(NC1CCN(Cc2ccccc2)CC1)c1cc2nc(-c3ccc(Cl)s3)cc(C(F)(F)F)n2n1`, with 0.6993.

Regarding `c1ccc2cc3c(Nc4ccc(N5CCOCC5)cc4)ccnc3cc2c1`, the Ratio is 0.7931. For the compound `O=C(Nc1ccc(N2CCN(Cc3ccccc3)CC2)cc1)c1cccs1.O=C(O)C(F)(F)F`, the Ratio is on record as 0.8148. Then `CCc1ccc(Nc2cc(C)nc3nc(C)nn23)cc1`, with 0.9802. As for `CCOc1ccc(N2C(N)=NC(N)=NC2(C)C)cc1.Cl`, the Ratio is reported as 0.7815. Under `Cc1ccc(Nc2nc(N)c3ccccc3n2)cc1Cl` stands 0.9206; under `COc1ccc(CNC2CCN(c3ccc(NC(=O)c4cccc(Cl)c4)cc3)CC2)cc1OC`, 1.145.

Regarding `C=CC12CCN(CC1)C(C(O)c1ccnc3ccc(OC)cc13)C2.Cl` (stereo not drawn), the Ratio stood at 0.6933.

On to `Cc1ccc(C(=O)c2oc3ccc4c(C)cc(=O)oc4c3c2C)cc1`, for which the Ratio was found to be 1.018.

In the case of `CCc1ccc(Nc2cc(C)c3ccc(O)cc3n2)cc1.Cl`, the Ratio is listed as 0.7867. Turning to `COc1ccc(C)c2sc(N(Cc3cccnc3)C(=O)c3ccc(C#N)cc3)nc12`, the Ratio was 0.971. Then `Cl.Clc1cc(Br)ccc1-c1ccc(CNCC2CCNCC2)o1`, with 1.173; and `Cc1sc(NC(=O)c2ccco2)c(C(c2cccnc2)N2CCC(Cc3ccccc3)CC2)c1C` (stereo not drawn), with 1.123; and `CC(=O)NCCc1nc2ccccc2n1Cc1ccc(C(C)C)cc1`, with 1.018. Take `COc1cc2c(cc1OC)C1=NNC(=O)C1=NC(C)(C)C2`: the Ratio is reported as 1.994. Then `Cc1[nH]c(-c2ccc(F)cc2)cc1C(=O)NC1CCN(Cc2ccccc2)CC1`, with 0.8906. Under `CCCc1cc(O)c2c3c(c(=O)oc2c1)CN(C)CC3` stands 0.8028. Under `Cc1cc(NC(=O)c2cccc(C(F)(F)F)c2)n(-c2nc(-c3ccc4c(c3)OCO4)cs2)n1` stands 0.8908; under `Cc1nc2ccccc2c(O)c1CC=C(Cl)Cl`, 1.066; under `O=[N+]([O-])c1ccc(C=NNc2nc3ccccc3[nH]2)cc1`, 1.132. Consider `CC(C)=CCN1CCC(C(=O)Nc2ccc(-c3nc4ccccc4[nH]3)cc2)CC1`, for which the Ratio came out at 0.8533.

As to `CCN(CC)CCNc1ccnc2cc3ccccc3cc12.O=P(O)(O)O`, the Ratio was 1.056. Under `COc1cc(-c2nc(-c3ccc(Sc4ccccc4)cc3)c(-c3ccccc3)[nH]2)cc(OC)c1O` stands 1.071. Then `CCOC(=O)C1=C(C)N=c2sc(=Cc3ccccc3O)c(=O)n2C1c1ccc(OC)c2ccccc12` (stereo not drawn), with 1.667; and `OC(CNC1CCCC1)Cn1c2ccccc2c2ccccc21` (stereo not drawn), with 1.151; and `COc1ccccc1CNC(=O)CCn1c(=O)[nH]c2ccsc2c1=O`, with 1.123.

`CCOC(=O)C1(Cc2ccccc2)CCN(Cc2cccc(OC)c2O)CC1`: the Ratio is 0.7015.

As to `CCOc1c(Cl)cc(CNC(C)C(O)c2ccccc2)cc1OC` (stereo not drawn), the Ratio is on record as 1.031. Then `CCOc1ccc2nc(C)cc(Nc3ccc(N(C)C)cc3)c2c1.Cl`, with 1.135; and `Cc1ccc(-c2nc3ccccc3o2)cc1NCc1cc(Cc2ccccc2)ccc1O`, with 1.167; and `Br.CCN(CC)S(=O)(=O)c1ccc(-c2csc(Nc3ccc(C)c(C)c3)n2)cc1`, with 0.8. Under `COc1ccc(-c2nc(NC(=O)CS(=O)(=O)c3ccc(F)cc3)sc2C)cc1` stands 0.8289; under `COc1ccc(C2c3ccc4ccccc4c3Oc3ncn(CCCN(C)C)c(=N)c32)cc1` (stereo not drawn), 1.078.

With `COc1ccc(-c2nonc2NC(=O)c2cccc(C)c2)cc1OC`, the Ratio is given as 1.066. Regarding `CCOc1cc2c(cc1OCC)C(c1cc(Cl)ccc1O)NCC2` (stereo not drawn), the Ratio amounted to 1.123. Under `CN(N=O)C1=C(NC2CCCCC2)C(=O)c2ccccc2C1=O` stands 1.071; under `COc1ccc(C(C)=O)cc1N1C(=O)C2C(C1=O)C1(c3ccccc3)C(=O)C2(c2ccccc2)C(c2ccc(C)cc2)=C1c1ccc(C)cc1` (stereo not drawn), 0.8421; under `CSC1=NC(=Nc2c(C)cccc2C)C2(CCC(C(C)(C)C)CC2)N1c1ccc(Cl)cc1` (stereo not drawn), 0.8243. As to `CCN(CC)c1ccc(NC(=O)c2cccs2)cc1`, the Ratio is 1. Then `O=C(Nc1ccc(Cl)cc1)N1CCN(c2ccc3nncn3n2)CC1`, with 0.8112.

As for `Cc1cc(C=C2SC(=Nc3ccccc3)N(C3CCCC3)C2=O)c(C)n1-c1ccc(Cl)cc1`, the Ratio was 1.038.

For the compound `CCOc1cc(Cl)c(C(C)NC(=O)c2cccc(OC)c2)cc1OCC` (stereo not drawn), the Ratio was 0.9259. Then `CCOc1cc(Cl)c(C(C)NC(=O)c2ccccc2)cc1OCC` (stereo not drawn), with 0.9848. Then `COc1cccc(Nc2nc(N)c3ccccc3n2)c1.Cl`, with 0.9815; and `CCOC(=O)c1c(C)n(-c2ccc(Cl)cc2)c2ccc(OC(=O)C=Cc3ccccc3)cc12`, with 1.121. With `Oc1c2c(nc3cc(-c4ccccc4)nn13)CCCC2`, the Ratio worked out at 0.8046. Under `CCCCCCc1cc(O)c2c3c(c(=O)oc2c1)CCC(C)C3` (stereo not drawn) stands 1.073.

On to `CC(C)(C)c1ccc2c(c1)CN(Cc1ccc(Cl)cc1)CO2`, for which the Ratio was determined as 0.8966. Under `CCOc1cc(CNC(C)C(O)c2ccccc2)cc(Cl)c1OCC` (stereo not drawn) stands 0.8833; under `CCN1CCN(c2cc(C)c3cc(NC(=O)c4ccc(OC)c(OC)c4)ccc3n2)CC1`, 0.8308; under `COc1cc2c3cc1Oc1c(OC)c(OC)cc4c1C(Cc1ccc(O)c(c1)Oc1ccc(cc1)CC3N(C)CC2)N(C)CC4.Cl` (stereo not drawn), 0.95. Then `Oc1ccc2ccccc2c1CNc1nc2ccccc2[nH]1`, with 0.578; and `OC1=C2C(=Nc3ccccc3SC2c2ccc(Br)cc2)c2ccccc21` (stereo not drawn), with 1.068. Under `O=C(Nc1ccc(N2CCCCC2)c(Cl)c1)c1ccc(Br)o1` stands 0.8784; under `C[n+]1c2ccccc2nc2ccc(NCCO)cc21`, 0.9178.

`COc1ccc2nc(C)cc(Nc3ccccc3O)c2c1`: the Ratio is listed as 0.7711. Under `CC1=C(CC(=O)c2cccc([N+](=O)[O-])c2)C(=O)c2ccccc2C1=O` stands 1.085. As for `Cc1cc(Nc2ccc3ccccc3c2)n2ncnc2n1`, the Ratio worked out at 0.8919.

For the compound `Fc1ccc2[nH]c3c(NCCCN4CCOCC4)ncnc3c2c1`, the Ratio is on record as 0.8594. Then `Cl.OC(CNCc1ccccc1)Cn1c2ccccc2c2ccccc21` (stereo not drawn), with 0.9403; and `COCCNC(=O)c1ccc(OC2CCN(Cc3ccc(F)c(F)c3)CC2)c(Cl)c1`, with 1.063. Consider `COc1ccc(C2C(C(=O)Nc3cccc(OC)c3)c3ccccc3C(=O)N2C2CCCCC2)cc1` (stereo not drawn), for which the Ratio is reported as 0.7969. Then `COc1ccc2nc(N)nc(C)c2c1`, with 0.8974.

As to `CCCCCCC(O)(c1ccc(F)cc1)C(CN1CCOCC1)c1ccccc1.Cl` (stereo not drawn), the Ratio came out at 0.9077.

On to `O=C(NC1CCCC1)c1ccc(N2CCC(NCc3cccc(C(F)(F)F)c3)CC2)cc1`, for which the Ratio is 0.8.

`C=C(C)CCC(C)N1CCC(N2CCC(C(=O)NCCc3ccccc3)CC2)CC1` (stereo not drawn): the Ratio stood at 0.756.

In the case of `CCOc1cc2c(cc1OCC)C(c1cc(OC)c(O)cc1Cl)NCC2` (stereo not drawn), the Ratio is on record as 0.9254. Then `Cn1c(C(=O)c2cccc3ccccc23)nc2ccccc21`, with 0.8689; and `CCCCN(CCCC)S(=O)(=O)c1ccc(NC(=O)c2ccco2)cc1`, with 0.8649; and `Cl.c1ccc2c(NCCCCCCNc3c4c(nc5ccccc35)CCCC4)c3c(nc2c1)CCCC3`, with 1.108. Under `Cc1ccc(-c2cc3c(SCC(=O)Nc4cc(C(F)(F)F)ccc4Cl)nccn3n2)cc1` stands 0.9375; under `CCOc1ccc(Nc2c3ccccc3nc3ccccc23)cc1.Cl`, 1; under `CCOC(=O)c1c(C)n(-c2ccccc2)c2ccc(OC(=O)c3cc(OC)c(OC)c(OC)c3)cc12`, 0.9.

With `COc1cccc(C=Cc2nc(=O)c3ccccc3o2)c1OC`, the Ratio is recorded as 0.4632. For the compound `CCOc1cccc(C(=O)Nc2ccc(-c3nc4ccccc4[nH]3)cc2)c1`, the Ratio was determined as 1.322. With `CCc1c(C)c(=N)c2ccccc2n1C.I`, the Ratio is reported as 1.064.

Consider `COc1cccc(NC(=O)Cn2c(C)c(C#N)c3ccccc32)c1`, for which the Ratio came out at 1.098. Then `Cc1ccnc(NC(c2cccc(OCc3ccccc3)c2)c2ccc3cccnc3c2O)c1` (stereo not drawn), with 1.558; and `COc1cccc(-c2nn(C)c3sc(C(=O)NCCN4CCN(c5ccccc5F)CC4)cc23)c1`, with 0.7703; and `CCC(=O)Nc1nnc(Cc2ccc(OC)c(OC)c2)s1`, with 0.7213. Then `Cc1ccc(F)cc1NC(=O)c1cc(Cl)ccc1Nc1ccccc1`, with 1.055; and `COc1cc(SC)ccc1C(=O)N1CCCC(C)C1` (stereo not drawn), with 0.6888.
